These results are taken from US9670227B2, “Thienopyrimidine derivatives, a process for their preparation and pharmaceutical compositions containing them” (LES LABORATOIRES SERVIER, priority 2013, dated 2017).

For assay [1], the target named is Mcl-1 protein (UniProtKB primary accession number: Q07820) (Homo sapiens, UniProt Q07820). The experiment in a line: Inhibition of Mcl-1 by fluorescence polarisation, Method 1. The class given is binding. The settings on record: fluorescence polarisation; Method 1, or Method 2; read-out: IC50 (M) Mcl-1 FP. In outline: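 Fluorescence polarisation competition with an 11-point compound dilution series (final DMSO 5%). Mcl-1 protein at 5 nM and fluorescein-labelled ligand at 1 nM (final) in 10 mM HEPES, 150 mM NaCl, 0.05% Tween 20, pH 7.4.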

Assay [2] concerns H929 multiple myeloma tumour line. Kind of assay: In vitro cytotoxicity, Microculture Tetrazolium Assay. In kind it is cell-based. The settings on record: H929 cells, 48 hours exposure, MTT, read-out: IC50 (μM) MTT H929. The method, then:
The cytotoxicity studies were carried out on the H929 multiple myeloma tumour line.
The cells are distributed onto microplates and exposed to the test compounds for 48 hours.

Each structure is given as a SMILES string. Like-named read-outs stand apart in the source and are kept apart here.

Chain of Mcl-1 protein (Q07820 whole entry): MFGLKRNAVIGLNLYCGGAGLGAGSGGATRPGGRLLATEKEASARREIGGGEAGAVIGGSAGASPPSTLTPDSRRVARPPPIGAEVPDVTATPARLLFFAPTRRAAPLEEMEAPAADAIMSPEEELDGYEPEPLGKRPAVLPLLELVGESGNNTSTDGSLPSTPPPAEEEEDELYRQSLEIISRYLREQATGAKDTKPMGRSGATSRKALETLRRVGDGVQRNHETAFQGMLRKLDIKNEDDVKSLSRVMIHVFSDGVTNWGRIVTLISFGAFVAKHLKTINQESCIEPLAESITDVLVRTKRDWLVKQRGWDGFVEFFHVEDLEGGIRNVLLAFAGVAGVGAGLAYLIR

Broadly, the IC50 is the concentration that inhibits the measured activity by half. As for `COCCOc1ccc(-c2sc3ncnc(OC(Cc4ccccc4OCc4ccnn4CC(F)(F)F)C(=O)O)c3c2-c2ccc(OCCN3CCN(C)CC3)c(Cl)c2C)cn1` [Example 694, (2R)-2-[((5Sa)-5-{3-chloro-2-methyl-4-[2-(4-methylpiperazin-1-yl)ethoxy]phenyl}-6-[6-(2-methoxyethoxy)pyridin-3-yl]thieno[2,3-d]pyrimidin-4-yl)oxy]-3-(2-{[1-(2,2,2-trifluoroethyl)-1H-pyrazol-5-yl]methoxy}phenyl)propanoic acid], the IC50 came out at 6.4e-09 M in assay [1] and 0.183 µM in assay [2] (Homo sapiens, NCI-H929, 48 h).

Take `Cc1c(-c2c(-c3ccc(OCC(F)(F)F)nc3)sc3ncnc(OC(Cc4ccccc4OCc4ccnn4CC(F)(F)F)C(=O)O)c23)ccc(OCCN2CCN(C)CC2)c1Cl` [Example 695, (2R)-2-[((5Sa)-5-{3-chloro-2-methyl-4-[2-(4-methylpiperazin-1-yl)ethoxy]phenyl}-6-[6-(2,2,2-trifluoroethoxy)pyridin-3-yl]thieno[2,3-d]pyrimidin-4-yl)oxy]-3-(2-{[1-(2,2,2-trifluoroethyl)-1H-pyrazol-5-yl]methoxy}phenyl)propanoic acid]: the IC50 is 1.6e-08 M in assay [1] and 0.268 µM in assay [2] (Homo sapiens, NCI-H929, 48 h).

`COc1ccc(-c2sc3ncnc(OC(Cc4ccccc4OCc4ccnn4CC(F)(F)F)C(=O)O)c3c2-c2ccc(OCCN3CCN(C)CC3)c(Cl)c2C)cn1` [Example 696, (2R)-2-{[(5Sa)-5-{3-chloro-2-methyl-4-[2-(4-methylpiperazin-1-yl)ethoxy]phenyl}-6-(6-methoxypyridin-3-yl)thieno[2,3-d]pyrimidin-4-yl]oxy}-3-(2-{[1-(2,2,2-trifluoroethyl)-1H-pyrazol-5-yl]methoxy}phenyl)propanoic acid]: the IC50 was 9.6e-09 M in assay [1] and 0.05 µM in assay [2] (Homo sapiens, NCI-H929, 48 h).

`COc1nccc(COc2ccccc2CC(Oc2ncnc3sc(-c4cccc(F)c4F)c(-c4ccc(OCCN5CCN(C)CC5)c(Cl)c4C)c23)C(=O)O)n1` [Example 703, (2R)-2-{[(5Sa)-5-{3-chloro-2-methyl-4-[2-(4-methylpiperazin-1-yl)ethoxy]phenyl}-6-(2,3-difluorophenyl)thieno[2,3-d]pyrimidin-4-yl]oxy}-3-{2-[(2-methoxypyrimidin-4-yl)methoxy]phenyl}propanoic acid]: the half-maximal inhibitory concentration (IC50) was found to be 9.3e-09 M in assay [1] and 0.03 µM in assay [2] (Homo sapiens, NCI-H929, 48 h).

Turning to `CCn1nccc1COc1ccccc1CC(Oc1ncnc2sc(-c3cccc(F)c3F)c(-c3ccc(OCCN4CCN(C)CC4)c(Cl)c3C)c12)C(=O)O` [Example 704, (2R)-2-{[(5Sa)-5-{3-chloro-2-methyl-4-[2-(4-methylpiperazin-1-yl)ethoxy]phenyl}-6-(2,3-difluorophenyl)thieno[2,3-d]pyrimidin-4-yl]oxy}-3-{2-[(1-ethyl-1H-pyrazol-5-yl)methoxy]phenyl}propanoic acid], the IC50 in assay [1] came to 9.9e-09 M; in assay [2] (Homo sapiens, NCI-H929, 48 h) it was 0.025 µM.

For the compound `Cc1c(-c2c(-c3cccc(F)c3F)sc3ncnc(OC(Cc4ccccc4OCc4ccnc(C(F)(F)F)n4)C(=O)O)c23)ccc(OCCN2CCN(C)CC2)c1Cl` [Example 705, (2R)-2-{[(5Sa)-5-{3-chloro-2-methyl-4-[2-(4-methylpiperazin-1-yl)ethoxy]phenyl}-6-(2,3-difluorophenyl)thieno[2,3-d]pyrimidin-4-yl]oxy}-3-(2-{[2-(trifluoromethyl)pyrimidin-4-yl]methoxy}phenyl)propanoic acid], the half-maximal inhibitory concentration (IC50) in assay [1] stood at 1.7e-08 M; in assay [2] (Homo sapiens, NCI-H929, 48 h), 0.02 µM.

Regarding `COc1nccc(COc2ccccc2CC(Oc2ncnc3sc(-c4ccc(F)c(F)c4)c(-c4ccc(OCCN5CCN(C)CC5)c(Cl)c4C)c23)C(=O)O)n1` [Example 706, (2R)-2-{[(5Sa)-5-{3-chloro-2-methyl-4-[2-(4-methylpiperazin-1-yl)ethoxy]phenyl}-6-(3,4-difluorophenyl)thieno[2,3-d]pyrimidin-4-yl]oxy}-3-{2-[(2-methoxypyrimidin-4-yl)methoxy]phenyl}propanoic acid], the concentration for half-maximal inhibition (IC50) in assay [1] amounted to 3.6e-09 M; in assay [2] (Homo sapiens, NCI-H929, 48 h), 0.04 µM.

`Cc1c(-c2c(-c3ccc(F)c(F)c3)sc3ncnc(OC(Cc4ccccc4OCc4ccnc(C(F)(F)F)n4)C(=O)O)c23)ccc(OCCN2CCN(C)CC2)c1Cl` [Example 707, (2R)-2-{[(5Sa)-5-{3-chloro-2-methyl-4-[2-(4-methylpiperazin-1-yl)ethoxy]phenyl}-6-(3,4-difluorophenyl)thieno[2,3-d]pyrimidin-4-yl]oxy}-3-(2-{[2-(trifluoromethyl)pyrimidin-4-yl]methoxy}phenyl)propanoic acid]: the half-inhibitory concentration (IC50) in assay [1] was determined as 1.4e-08 M; in assay [2] (Homo sapiens, NCI-H929, 48 h), 0.042 µM.

As for `CCn1nccc1COc1ccccc1CC(Oc1ncnc2sc(-c3ccc(F)c(F)c3)c(-c3ccc(OCCN4CCN(C)CC4)c(Cl)c3C)c12)C(=O)O` [Example 708, (2R)-2-{[(5Sa)-5-{3-chloro-2-methyl-4-[2-(4-methylpiperazin-1-yl)ethoxy]phenyl}-6-(3,4-difluorophenyl)thieno[2,3-d]pyrimidin-4-yl]oxy}-3-{2-[(1-ethyl-1H-pyrazol-5-yl)methoxy]phenyl}propanoic acid], the IC50 in assay [1] came to 9.6e-09 M; in assay [2] (Homo sapiens, NCI-H929, 48 h), 0.055 µM.

For the compound `Cc1c(-c2c(-c3cccc(F)c3)sc3ncnc(OC(Cc4ccccc4OC(C)C)C(=O)O)c23)ccc(OCCN2CCN(C)CC2)c1Cl` [Example 709, (2R)-2-{[(5Sa)-5-{3-chloro-2-methyl-4-[2-(4-methylpiperazin-1-yl)ethoxy]phenyl}-6-(3-fluorophenyl)thieno[2,3-d]pyrimidin-4-yl]oxy}-3-[2-(propan-2-yloxy)phenyl]propanoic acid], the IC50 was 3.2e-08 M in assay [1] and 0.518 µM in assay [2] (Homo sapiens, NCI-H929, 48 h).

For the compound `COc1ccc(COc2ccccc2CC(Oc2ncnc3sc(-c4cccc(F)c4)c(-c4ccc(OCCN5CCN(C)CC5)c(Cl)c4C)c23)C(=O)O)cc1` [Example 710, (2R)-2-{[(5Sa)-5-{3-chloro-2-methyl-4-[2-(4-methylpiperazin-1-yl)ethoxy]phenyl}-6-(3-fluorophenyl)thieno[2,3-d]pyrimidin-4-yl]oxy}-3-{2-[(4-methoxybenzyl)oxy]phenyl}propanoic acid], the half-maximal inhibitory concentration (IC50) amounted to 2.4e-09 M in assay [1] and 0.384 µM in assay [2] (Homo sapiens, NCI-H929, 48 h).

Consider `Cc1c(-c2c(-c3cccc(F)c3)sc3ncnc(O[C@H](Cc4ccccc4O)C(=O)O)c23)ccc(OCCN2CCN(C)CC2)c1Cl` [Example 711, (2R)-2-{[(5Sa)-5-{3-chloro-2-methyl-4-[2-(4-methylpiperazin-1-yl)ethoxy]phenyl}-6-(3-fluorophenyl)thieno[2,3-d]pyrimidin-4-yl]oxy}-3-(2-hydroxyphenyl)propanoic acid], for which the IC50 in assay [1] is 3.7e-09 M; in assay [2] it was 0.591 µM.

In the case of `COc1ccc(Cl)cc1CC(Oc1ncnc2sc(-c3ccc(Cl)o3)c(-c3ccc(OCCN4CCN(C)CC4)c(Cl)c3C)c12)C(=O)O` [Example 714, (2R)-2-{[6-(5-chlorofuran-2-yl)-(5Sa)-5-{3-chloro-2-methyl-4-[2-(4-methylpiperazin-1-yl)ethoxy]phenyl}thieno[2,3-d]pyrimidin-4-yl]oxy}-3-(5-chloro-2-methoxyphenyl)propanoic acid], the IC50 in assay [1] was determined as 3.4e-08 M; in assay [2] (Homo sapiens, NCI-H929, 48 h), 0.188 µM.

Consider `COc1cc(F)ccc1CC(Oc1ncnc2sc(-c3ccc(Cl)o3)c(-c3ccc(OCCN4CCN(C)CC4)c(Cl)c3C)c12)C(=O)O` [Example 718, (2R)-2-{[6-(5-chlorofuran-2-yl)-(5Sa)-5-{3-chloro-2-methyl-4-[2-(4-methylpiperazin-1-yl)ethoxy]phenyl}thieno[2,3-d]pyrimidin-4-yl]oxy}-3-(4-fluoro-2-methoxyphenyl)propanoic acid], for which the IC50 in assay [1] was 1.2e-08 M; in assay [2] (Homo sapiens, NCI-H929, 48 h), 0.082 µM.

In the case of `Cc1c(-c2c(-c3ccc(F)cc3)sc3ncnc(OC(Cc4ccccc4OCc4ccnc(-c5ccccc5OCc5ccccc5)n4)C(=O)O)c23)ccc(OCCN2CCN(C)CC2)c1Cl` [Example 725, (2R)-3-[2-({2-[2-(benzyloxy)phenyl]pyrimidin-4-yl}methoxy)phenyl]-2-{[(5Sa)-5-{3-chloro-2-methyl-4-[2-(4-methylpiperazin-1-yl)ethoxy]phenyl}-6-(4-fluorophenyl)thieno[2,3-d]pyrimidin-4-yl]oxy}propanoic acid], the IC50 in assay [1] stood at 1.46e-09 M; in assay [2] (Homo sapiens, NCI-H929, 48 h), 0.01 µM.

Regarding `Cc1c(-c2c(-c3ccc(F)cc3)sc3ncnc(OC(Cc4ccccc4OCc4ccnc(-c5ccccc5C(F)(F)F)n4)C(=O)O)c23)ccc(OCCN2CCN(C)CC2)c1Cl` [Example 727, (2R)-2-{[(5Sa)-5-{3-chloro-2-methyl-4-[2-(4-methylpiperazin-1-yl)ethoxy]phenyl}-6-(4-fluorophenyl)thieno[2,3-d]pyrimidin-4-yl]oxy}-3-[2-({2-[2-(trifluoromethyl)phenyl]pyrimidin-4-yl}methoxy)phenyl]propanoic acid], the half-inhibitory concentration (IC50) in assay [1] was found to be 1.32e-09 M; in assay [2] (Homo sapiens, NCI-H929, 48 h), 0.013 µM.

As for `COc1cnccc1-c1nccc(COc2ccccc2CC(Oc2ncnc3sc(-c4ccc(F)cc4)c(-c4ccc(OCCN5CCN(C)CC5)c(Cl)c4C)c23)C(=O)O)n1` [Example 730, (2R)-2-{[(5Sa)-5-{3-chloro-2-methyl-4-[2-(4-methylpiperazin-1-yl)ethoxy]phenyl}-6-(4-fluorophenyl)thieno[2,3-d]pyrimidin-4-yl]oxy}-3-(2-{[2-(3-methoxypyridin-4-yl)pyrimidin-4-yl]methoxy}phenyl)propanoic acid], the IC50 in assay [1] was found to be 9.48e-10 M; in assay [2] (Homo sapiens, NCI-H929, 48 h), 0.005 µM.
